Test results: patent US11958861B2, “Spirocyclic lactams as JAK2 V617F inhibitors” (Incyte Corporation, priority 2021, dated 2024)
Counter-ions that a name gives are not always drawn.

Columns and labels:
[1] = biological target: T1, pseudo-kinase domain (JH2, amino-acids 536-812) of human V617F mutant JAK2 (Homo sapiens, UniProt O60674, F794H/V617F/W659A/W777A); experiment: JAK2 LanthaScreen JH2-V617F Binding Assay; conditions: 1 hour at 25° C.
T1 construct: pseudo-kinase domain (JH2, amino-acids 536-812 with 3 surface mutations W659A, W777A, F794H); purchased BPS Bioscience 79498; host or cells: baculovirus expression system
Procedure: Example C. JAK2 LanthaScreen JH2-V617F Binding Assay
(§1) JAK2 JH2-V617F binding assay utilizes pseudo-kinase domain (JH2, amino-acids 536-812 with 3 surface mutations W659A, W777A, F794H) of human V617F mutant JAK2 expressed as C-terminal His-Avi-tagged, biotinylated protein in a baculovirus expression system (BPS Bioscience, Catalog #79498). The assay was conducted in black 384-well polystyrene plates in a final reaction volume of 20 μL. JAK2 JH2-V617F (0.26 nM) was incubated with compounds (100 nL serially diluted in DMSO) in the presence of 50 nM Fluorescent JAK2-JH2 Tracer (MedChem Express Catalog #HY-102055) and 0.25 nM Streptavidin-Tb cryptate (Cisbio Part #610SATLB) in assay buffer (50 mM Tris, pH=7.5, 10 mM MgCl2, 0.01% Brij-35, 0.1% BSA, 1 mM EGTA, 5% Glycerol and 5 mM DTT). Non-specific binding was accessed in the presence of 2 mM ATP. After incubation for 1 hour at 25° C., LanthaScreen signals were read on a PHERAstar FS plate reader (BMG LABTECH). Data was analyzed with IDBS XLfit and GraphPad Prism 5.0 software using a four parameter dose response curve to determine IC50 for each compound.

[2] = biological target: T2, catalytic domain (JH1, amino acids 808-1132) of human JAK2 (Homo sapiens, UniProt O60674); experiment: JAK2 HTRF Enzyme Activity Assay; format: biochemical; conditions: ATP 30 μM, read-out: ENZ 30UMATP
T2 construct: catalytic domain (JH1, amino acids 808-1132) of human JAK2; His (N); purchased BPS Bioscience 40450; host or cells: baculovirus expression system
Procedure: Example D. JAK2 HTRF Enzyme Activity Assay
JAK2 enzyme activity assays utilize catalytic domain (JH1, amino acids 808-1132) of human JAK2 expressed as N-terminal His-tagged protein in a baculovirus expression system (BPS Bioscience, Catalog #40450). The assays was conducted in black 384-well polystyrene plates in a final reaction volume of 20 μL. JAK2 (0.015 nM) was incubated with compounds (100 nL serially diluted in DMSO) in the presence of ATP (30 μM or 1 mM) and 500 nM Biotin-labeled […] (SEQ ID NO.: 1) peptide (BioSource International, custom synthesis) in assay buffer (50 mM Tris, pH=7.5, 10 mM MgCl2, 0.01% Brij-35, 0.1% BSA, 1 mM EGTA, 5% Glycerol and 5 mM DTT) for 60 minutes at 25° C. The reactions were stopped by the addition of 10 μL of detection buffer (50 mM Tris, pH 7.8, 0.5 mg/mL BSA, 150 mM NaCl), supplemented with EDTA, LANCE Eu-W1024 anti-phosphotyrosine (PY20), (PerkinElmer, Catalog #AD0067) and Streptavidin SureLight APC (PerkinElmer Catalog #CR130-100), for a final concentration of 15 mM, 1.5 nM and 75 nM, respectively. HTRF signals were read after 30 minutes incubation at room temperature on a PHERAstar FS plate reader (BMG LABTECH). Data was analyzed with IDBS XLfit and GraphPad Prism 5.0 software using a four parameter dose response curve to determine IC50 for each compound.

[3] = biological target: T3, catalytic domain (JH1, amino acids 826-1132) of human JAK2 (Homo sapiens, UniProt O60674); experiment: JAK2 LanthaScreen JH1 Binding Assay; conditions: 2 hours at 25° C.
T3 construct: catalytic domain (JH1, amino acids 826-1132) of human JAK2; purchased Carna Biosciences 08-445-20N; host or cells: baculovirus expression system
Procedure: Example A. JAK2 LanthaScreen JH1 Binding Assay
JAK2 JH1 binding assay utilizes catalytic domain (JH1, amino acids 826-1132) of human JAK2 expressed as N-terminal FLAG-tagged, biotinylated protein in a baculovirus expression system (Carna Biosciences, Product #08-445-20N). The assay was conducted in black 384-well polystyrene plates in a final reaction volume of 20 μL. JAK2 JH1 (1.5 nM) was incubated with compounds (100 nL serially diluted in DMSO) in the presence of 50 nM Fluorescent JAK2-JH1 Tracer and 0.5 nM Streptavidin-Tb cryptate (Cisbio Part #610SATLB) in assay buffer (50 mM Tris, pH=7.5, 10 mM MgCl2, 0.01% Brij-35, 0.1% BSA, 1 mM EGTA, 5% Glycerol and 5 mM DTT). Non-specific binding was accessed in the presence of 2 mM ATP. After incubation for 2 hours at 25° C., LanthaScreen signals were read on a PHERAstar FS plate reader (BMG LABTECH). Data was analyzed with IDBS XLfit and GraphPad Prism 5.0 software using a four parameter dose response curve to determine IC50 for each compound.

[4] = biological target: T4, pseudo-kinase domain (JH2, amino-acids 536-812) of human Wild Type JAK2 (Homo sapiens, UniProt O60674, F794H/W659A/W777A); experiment: JAK2 LanthaScreen JH2-WT Binding Assay; conditions: 1 hour at 25° C.
T4 construct: pseudo-kinase domain (JH2, amino-acids 536-812 with 3 surface mutations W659A, W777A, F794H); purchased BPS Bioscience 79463; host or cells: baculovirus expression system
Procedure: Example B. JAK2 LanthaScreen JH2-WT Binding Assay
as §1, with “JH2-WT” for “JH2-V617F”, “Wild Type” for “V617F mutant”, “#79463).” for “#79498).”, “JH2-WT (0.145” for “JH2-V617F (0.26”

T3 sequence (O60674 826-1132): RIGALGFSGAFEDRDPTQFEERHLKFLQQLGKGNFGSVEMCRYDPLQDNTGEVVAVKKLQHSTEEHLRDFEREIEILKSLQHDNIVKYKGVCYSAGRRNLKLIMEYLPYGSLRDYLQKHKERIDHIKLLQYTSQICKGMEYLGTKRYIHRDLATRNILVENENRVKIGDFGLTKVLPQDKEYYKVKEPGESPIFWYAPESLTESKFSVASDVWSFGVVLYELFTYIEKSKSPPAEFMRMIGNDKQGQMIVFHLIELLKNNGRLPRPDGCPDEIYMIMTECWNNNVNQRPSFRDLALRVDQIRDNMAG
T1 sequence (O60674 536-812 V617F/W659A/W777A/F794H): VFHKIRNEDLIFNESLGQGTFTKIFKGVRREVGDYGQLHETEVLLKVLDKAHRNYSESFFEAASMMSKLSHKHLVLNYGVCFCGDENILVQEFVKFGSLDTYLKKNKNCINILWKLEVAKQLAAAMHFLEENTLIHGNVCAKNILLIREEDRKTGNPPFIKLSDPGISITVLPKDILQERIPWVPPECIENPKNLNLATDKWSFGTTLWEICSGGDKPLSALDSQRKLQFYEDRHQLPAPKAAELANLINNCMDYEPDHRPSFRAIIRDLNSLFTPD
T2 sequence (O60674 808-1132): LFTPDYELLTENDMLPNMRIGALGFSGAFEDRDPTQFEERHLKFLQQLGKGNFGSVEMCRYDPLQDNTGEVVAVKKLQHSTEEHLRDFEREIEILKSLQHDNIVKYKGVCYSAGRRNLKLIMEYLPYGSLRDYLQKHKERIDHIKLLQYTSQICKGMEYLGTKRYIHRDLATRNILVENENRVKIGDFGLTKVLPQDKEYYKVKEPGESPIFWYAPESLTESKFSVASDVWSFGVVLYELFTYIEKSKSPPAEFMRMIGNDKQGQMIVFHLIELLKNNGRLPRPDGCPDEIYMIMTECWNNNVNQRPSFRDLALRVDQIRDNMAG
T4 sequence (O60674 536-812 W659A/W777A/F794H): as the sequence (O60674 536-812 V617F/W659A/W777A/F794H) above, with F82V counted along it

| Compound | IC50 [1] | IC50 [2] | IC50 [3] | IC50 [4] |
| --- | --- | --- | --- | --- |
| CN1C(=O)C2(CCN(C3(CC#N)CCC3)CC2)c2c1cnc1[nH]c(-c3cn(C)nc3C3CC3)c(-c3ccc4c(cnn4C)c3)c21 [Example 40, 2-(1-(2-(3-Cyclopropyl-1-methyl-1H-pyrazol-4-yl)-6-methyl-1-(1-methyl-1H-indazol-5-yl)-7-oxo-6,7-dihydro-3H-spiro[dipyrrolo[2,3-b:3′,2′-d]pyridine-8,4′-piperidin]-1′-yl)cyclobutyl)acetonitrile, trifluoroacetate salt] | ≤ 100 nM | > 2500 nM | > 2500 nM | ≤ 100 nM |
| [2H]C([2H])([2H])N1C(=O)C2(CCCN(S(=O)(=O)C3(C)CC3)CC2)c2c1cnc1[nH]c(-c3cnn(C(C)C)c3)c(-c3ccc4c(cnn4C)c3)c21 (single isomer, unassigned) [Example 103, 2′-(1-Isopropyl-1H-pyrazol-4-yl)-6′-(methyl-d3)-1′-(1-methyl-1H-indazol-5-yl)-1-((1-methylcyclopropyl)sulfonyl)-3′,6′-dihydro-7′H-spiro[azepane-4,8′-dipyrrolo[2,3-b:3′,2′-d]pyridin]-7′-one, trifluoroacetate salt] | ≤ 100 nM | 500 to 1250 nM | 100 to 500 nM | ≤ 100 nM |
| CN1C(=O)C2(CCN(C(C)(C)C3CNC3)CC2)c2c1cnc1[nH]c(-c3cnn(C)c3)c(-c3ccc4c(cnn4C)c3)c21 [Example 84, 1′-(2-(Azetidin-3-yl)propan-2-yl)-6-methyl-1-(1-methyl-1H-indazol-5-yl)-2-(1-methyl-1H-pyrazol-4-yl)-3,6-dihydro-7H-spiro[dipyrrolo[2,3-b:3′,2′-d]pyridine-8,4′-piperidin]-7-one] | ≤ 100 nM | 100 to 500 nM | 500 to 1250 nM | ≤ 100 nM |
| CC(=O)N1CCC(n2cc(-c3[nH]c4ncc5c(c4c3-c3ccc4c(cnn4C)c3)C3(CCN(C4(CC#N)CCC4)CC3)C(=O)N5C)cn2)CC1 [Example 41, 2-(1-(2-(1-(1-Acetylpiperidin-4-yl)-1H-pyrazol-4-yl)-6-methyl-1-(1-methyl-1H-indazol-5-yl)-7-oxo-6,7-dihydro-3H-spiro[dipyrrolo[2,3-b:3′,2′-d]pyridine-8-4′-piperidin]-1′-yl)cyclobutyl)acetonitrile, trifluoroacetate salt] | ≤ 100 nM | ≤ 100 nM | 100 to 500 nM | ≤ 100 nM |
| [2H]C([2H])([2H])n1ncc2cc(-c3c(-c4cnn(C)c4)[nH]c4ncc5c(c34)[C@@]3(CC[C@H](NC(=O)C4(CC(N)=O)CCC4)C3)C(=O)N5C)ccc21 (racemic) [Example 100, trifluoroacetate salt] | 500 to 1250 nM |  | > 2500 nM | 500 to 1250 nM |
| 1-(Ethylsulfonyl)-2″-(3-methoxy-1-methyl-1H-pyrazol-4-yl)-6″-methyl-1″-(1-(methyl-d3)-1H-indazol-5-yl)-3″,6″-dihydro-7″H-dispiro[azetidine-3,1′-cyclobutane-3′,8″-dipyrrolo[2,3-b:3′,2′-d]pyridin]-7″-one, trifluoroacetate salt [Example 99] | ≤ 100 nM |  | > 2500 nM | ≤ 100 nM |
| O=C(O)C(F)(F)F.[2H]C([2H])([2H])n1ncc2cc(-c3c(-c4cnn5c4OCCC5)[nH]c4ncc5c(c34)C3(CC4(CN(S(=O)(=O)CC)C4)C3)C(=O)N5C)ccc21 [Example 98, 2″-(6,7-Dihydro-5H-pyrazolo[5,1-b][1,3]oxazin-3-yl)-1-(ethylsulfonyl)-6″-methyl-1″-(1-(methyl-d3)-1H-indazol-5-yl)-3″,6″-dihydro-7″H-dispiro[azetidine-3,1′-cyclobutane-3′,8″-dipyrrolo[2,3-b:3′,2′-d]pyridin]-7″-one, trifluoroacetate salt] | ≤ 100 nM |  | > 2500 nM | ≤ 100 nM |
| O=C(O)C(F)(F)F.[2H]C([2H])([2H])n1ccc(-c2[nH]c3ncc4c(c3c2-c2ccc3c(cnn3C)c2)C2(CC3(CCN(C(=O)CCC)CC3)C2)C(=O)N4C)c1 [Example 101, 1″-Butyryl-6-methyl-1-(1-methyl-1H-indazol-5-yl)-2-(1-(methyl-d3)-1H-pyrrol-3-yl)-3,6-dihydro-7H-dispiro[dipyrrolo[2,3-b:3′,2′-d]pyridine-8,1′-cyclobutane-3′,4″-piperidin]-7-one, trifluoroacetate salt] | ≤ 100 nM |  | 1250 to 2500 nM | ≤ 100 nM |
| CO[C@H]1CC[C@@](CC#N)(N2CCC3(CC2)C(=O)N(C)c2cnc4[nH]c(-c5cnn(C)c5)c(-c5ccc6c(cnn6C)c5)c4c23)CC1 (single isomer, unassigned) [Example 75b, 2-(4-Methoxy-1-(6-methyl-1-(1-methyl-1H-indazol-5-yl)-2-(1-methyl-1H-pyrazol-4-yl)-7-oxo-6,7-dihydro-3H-spiro[dipyrrolo[2,3-b:3′,2′-d]pyridine-8,4′-piperidin]-1′-yl)cyclohexyl)acetonitrile] | ≤ 100 nM | 500 to 1250 nM | 500 to 1250 nM |  |
| O=C(O)C(F)(F)F.[2H]C([2H])([2H])n1ccc(-c2[nH]c3ncc4c(c3c2-c2ccc3c(cnn3C([2H])([2H])[2H])c2)C2(CC3(CCN(C(=O)CCC)CC3)C2)C(=O)N4C)c1 [Example 102, 1″-Butyryl-6-methyl-1-(1-(methyl-d3)-1H-indazol-5-yl)-2-(1-(methyl-d3)-1H-pyrrol-3-yl)-3,6-dihydro-7H-dispiro[dipyrrolo[2,3-b:3′,2′-d]pyridine-8,1′-cyclobutane-3′,4″-piperidin]-7-one, trifluoroacetate salt] | ≤ 100 nM |  | > 2500 nM | ≤ 100 nM |
